Laboratory results published in patent publication US7651999B2, “2′, 5′-oligoadenylate analogs” (Sankyo Company, Limited, priority 2002, dated 2010).
Read-outs that look alike come from different tables or passages of the source.

Tested on: Human lung cancer cell line A549 cells
Details: 72 hours, MTT, 0.001-10 μM tested
[1] = read-out: 50% Growth inhibitory concentrations of the subject compounds with respect to A549 cells, Experiment 1
[2] = read-out: 50% Growth inhibitory concentrations of the subject compounds with respect to A549 cells, Experiment 2
[3] = read-out: 50% Growth inhibitory concentrations of the subject compounds with respect to A549 cells, Experiment 3

Description: Human lung cancer cell line A549 cells were plated at a density of 800 cells/200 μl in a 96-well plate using RPMI1640 (Gibco BRL) (containing 10% Fetal Bovine Serum (Hyclone)) for the medium followed by culturing overnight in 5% CO2 at 37° C. Each 2-5A analog was added to each well so that the final concentration became 0.001-10 μM, followed by culturing for 72 hours (3 days) (n=3 or 4). After culturing for 72 hours (3 days), MTT (3-[4,5-dimethylthiazol-2-yl]-2,5-diphenyltetrazolium bromide) was added in 50 μl aliquots to each well at a MTT/RPMI1640 concentration of 5 mg/ml, followed by additionally culturing for 4 hours. After 4 hours, the medium was removed and 150 μl of dimethyl sulfoxide were added to each well. After shaking for 5 minutes, UV absorbance at 540 nm, was measured to determine the relative ratio of the number of viable cells of the compound dose group to the number of viable cells of an untreated cell group followed by calculation of the IC50 concentration that inhibits cell growth by 50%.

Structure (SMILES)	IC50 [1] [nM]	IC50 [2] [nM]	IC50 [3] [nM]
COC1C(OP(=O)(S)OC[C@H]2O[C@@H](n3cnc4c(N)ncnc43)C(OP(=O)(O)OC[C@]34CCCOC3C(O)[C@H](n3cnc5c(N)ncnc53)O4)C2O)[C@H](n2cnc3c(N)ncnc32)O[C@@H]1COP(=O)(O)SCOC(=O)C(C)(C)C (some centres unmarked) [Example 9]	1390		
COC1C(OP(=O)(O)OC[C@H]2O[C@@H](n3cnc4c(N)ncnc43)C(OP(=O)(O)OC[C@]34CCCOC3C(O)[C@H](n3cnc5c(N)ncnc53)O4)C2O)[C@H](n2cnc3c(N)ncnc32)O[C@@H]1COP(=O)(O)SCOC(=O)C(C)(C)C (some centres unmarked) [Example 5]	400	320	
COC1C(OP(=O)(O)OC[C@H]2O[C@@H](n3cnc4c(N)ncnc43)C(OP(=O)(O)OC[C@]34CCCOC3C(O)[C@H](n3cnc5c(N)ncnc53)O4)C2O)[C@H](n2cnc3c(N)ncnc32)O[C@@H]1COP(O)(O)=S (some centres unmarked) [Example 2]	1530	910	
COC1C(OP(=O)(O)OC[C@H]2O[C@@H](n3cnc4c(N)ncnc43)C(OP(=O)(O)OC[C@]34CCCOC3C(O)[C@H](n3cnc5c(N)ncnc53)O4)C2O)[C@H](n2cnc3c(N)ncnc32)O[C@@H]1COP(=O)(O)SCCOC(=O)c1ccccc1 (some centres unmarked) [Example 14]		2340	
CCCCCCCCCC(=O)OCCSP(=O)(O)OC[C@H]1O[C@@H](n2cnc3c(N)ncnc32)C(OP(=O)(O)OC[C@H]2O[C@@H](n3cnc4c(N)ncnc43)C(OP(=O)(O)OC[C@]34CCCOC3C(O)[C@H](n3cnc5c(N)ncnc53)O4)C2O)C1OC (some centres unmarked) [Example 17]		350	
Nc1ncnc2c1ncn2[C@@H]1O[C@@]2(COP(=O)(O)OC3C(O)[C@@H](COP(=O)(S)OC4C(O)[C@@H](COP(=O)(O)S)O[C@H]4n4cnc5c(N)ncnc54)O[C@H]3n3cnc4c(N)ncnc43)CCCOC2C1O (some centres unmarked) [Example 8]	2230		
COC1C(OP(=O)(O)OC[C@H]2O[C@@H](n3cnc4c(N)ncnc43)C(OP(=O)(O)OC[C@]34CCCOC3C(O)[C@H](n3cnc5c(N)ncnc53)O4)C2O)[C@H](n2cnc3c(N)ncnc32)O[C@@H]1COP(=O)(O)SCCOC(=O)C(C)(C)C (some centres unmarked) [Example 13]		2540	
CCCCCCCCCCCCCC(=O)OCCSP(=O)(O)OC[C@H]1O[C@@H](n2cnc3c(N)ncnc32)C(OP(=O)(O)OC[C@H]2O[C@@H](n3cnc4c(N)ncnc43)C(OP(=O)(O)OC[C@]34CCCOC3C(O)[C@H](n3cnc5c(N)ncnc53)O4)C2O)C1OC (some centres unmarked) [Example 16]		90	
COC1C(OP(=O)(O)OC[C@H]2O[C@@H](n3cnc4c(N)ncnc43)C(OP(=O)(O)OC[C@]34CCCOC3C(O)[C@H](n3cnc5c(N)ncnc53)O4)C2O)[C@H](n2cnc3c(N)ncnc32)O[C@@H]1COP(=O)(O)SCCO (some centres unmarked) [Example 33]			2150
Nc1ncnc2c1ncn2[C@@H]1O[C@H](COP(O)(=S)OC2C(O)[C@@H](COP(O)(=S)OC3C(O)[C@@H](COP(O)(O)=S)O[C@H]3n3cnc4c(N)ncnc43)O[C@H]2n2cnc3c(N)ncnc32)C(O)C1O (some centres unmarked) [Example 4]	480	610	380
